Test results as given in US9402919B2, “Vectors conditionally expressing protein” (Intrexon Corporation, priority 2011, dated 2016).

What was measured:
[1] = Plasma HuEPO expression as a function of activator ligand dose in chow after IM AAV-HuEPO (0034A); type: in vivo
Protocol: Animals were anesthetized, their quadriceps were visualized and the injection site sterilized. The mice were injected with vector using a 0.5 ml insulin syringe and a 29.5 gauge needle. Each animal was injected with total of 10^11 virus genomes in a 100 μl volume. After the procedure, the animals were placed in their cage and observed for normal ambulation.
Plasma samples were assayed for the presence of human erythropoietin using Enzyme Linked Immunosorbent Assay (ELISA) (StemCell Technologies, #01630).
Animals were bled for baseline HCT levels, followed by IM administration of 10^11 AAV-HuEPO viral genomes per animal (0034A). Animals received activator ligand-containing chow, with activator ligand concentrations 1000 mg/kg (18-1000), 250 mg/kg (18-250), 100 mg/kg (18-100), 50 mg/kg (18-50), or 0 mg/kg (18-0) starting on the day of AAV administration. Control animals received either vector administration and normal chow (no activator ligand, 18-0), or they received vehicle-alone IM administration (saline) with (18-1000) or without (18-0) activator ligand. HCT and HuEPO expression levels were measured in all groups every 7 days.

murine melanoma, B16F0 = test: Bilateral B16F0 melanoma model: tumor volume after intratumoral Ad-RTS-mIL12; type: in vivo, C57BL/6 mice; conditions: day 21 post cell inoculation; activator ligand chow 1000 mg/kg alone, no vector
From the text: We investigated if the treatment of a local tumor with Ad-RTS-mIL12 (resulting in local tumor growth regression) would also lead to anti-tumor activity in the distant tumor. Toward this goal, we developed melanoma tumors on both flank regions of immunocompetent mice (C57BL/6) and treated the tumor on the right flank with Ad-RTS-mIL12 in the presence of activator ligand.
Six- to eight-week-old female C57B1/6 mice were purchased from Harlan (USA). Animal care and experimental procedures were performed according to Intrexon's Institutional Animal Care and Use Committee guidelines.
The murine melanoma (B16F0) cells were purchased from ATCC (Manassas, Va.). B16F0 cells were grown in Dulbecco's modified Eagle's medium (ATCC, Manassas, Va.), The DMEM was supplemented with heat-inactivated fetal calf serum (FCS) 10% v/v, 2-mM L-glutamine (Atlanta Biologicals, Inc, Lawrenceville, Ga.), 100 IU/ml […], and 100 μg/ml streptomycin. The cells were grown at 37° C. in 5% CO2. All cell lines were routinely tested and found to be free of mycoplasma. […]
Vector was administered intratumorally on Day 12 and Day 19 post tumor cell inoculation. Tumor size and body weight of each mouse were monitored three times a week until the end of the study. […]
The tumor volumes were calculated using the formula, L×W^2/2. […]

[2] = tested on: Lewis lung carcinoma (LLC); test: Syngeneic Lewis lung carcinoma model: tumor growth after i.t. Ad-RTS vectors with oral AL; type: in vivo, mice; conditions: oral AL alone in feed at 1000 ppm (~225 mg/kg/day)
From the text: Current cancer immunotherapies have provided limited success in the clinic and innovative strategies are required to further enhance the effectiveness of an anti-tumor immune response. This study assessed anti-tumor activity utilizing intratumoral (i.t.) administration of adenovirus (Ad) with the novel Rheoswitch Therapeutic System® (RTS®), an inducible promoter system, for regulated expression of murine IL-12 or IFNa. Oral administration of a small molecule activator ligand (AL), INXN-1001, regulates the expression of IL-12 in Ad-RTS-mIL-12 and IFNa in Ad-RTS-mIFNa. The regulated expression and therapeutic benefit of IL-12 and IFNa from i.t. administered Ad-RTS-mIL-12 and Ad-RTS-mIFNa, either alone or in combination, was examined in syngeneic Lewis lung carcinoma (LLC) and syngeneic mammary carcinoma (4T1) models.
In contrast, i.t. injection with 10^10 vp Ad-RTS-mIL-12 or Ad-RTS-mIFNa and daily oral AL led to significant tumor growth inhibition by day 25 (72 and 71%, respectively; p<0.05). […] Future studies will investigate the mechanism by which both IL-12 and IFNα exert their anti-tumor effect in the above tumor models.
LLC and 4T1 cells were transiently transduced with Ad-RTS-murine IL12 or Ad-RTS-murine IFNa at a MOI of 100. […] Supernatants were collected at 48 h and cytokine levels assessed by ELISA. n=3, mean±s.d. […]

Compound | plasma HuEPO expression ([1]; ligand chow 50 mg/kg (18-50), 14 and 21 days, 0034A IM) | plasma HuEPO expression ([1]; ligand chow 50 mg/kg (18-50), 7 days, 0034A 10^11 viral genomes IM, limit of sensitivity of the assay) [mU/ml] | plasma HuEPO expression ([1]; ligand chow 100 mg/kg (18-100), 7 days, 0034A IM) | average tumor volume, right flank tumor (murine melanoma, B16F0) [mm^3] | inhibition of tumor growth compared to control, untreated tumors [2]
CCC[C@@H](N(NC(=O)c1cccc(OC)c1CC)C(=O)c1cc(C)cc(C)c1)C(C)(C)C [activator ligand, (R)-3,5-Dimethyl-benzoic acid N-(1-tert-butyl-butyl)-N′-(2-ethyl-3-methoxy-benzoyl)-hydrazide] | detectable | ≤ 8 | lower HuEPO expression | 924±80 | 
CCC[C@@H](N(NC(=O)c1cccc(OC)c1CC)C(=O)c1cc(C)cc(C)c1)C(C)(C)C [AL] |  |  |  |  | did not result in significant inhibition of tumor growth
